Data on 18 compounds can be found in US7960415B2, “Caspase inhibitors and uses thereof” (Vertex Pharmaceutical Incoporated, priority 2003, dated 2011).

The test system of one experiment is Jurkat E6.1 cells. Kind of experiment: Anti-Fas induced apoptosis assay. Type of experiment: cell-based. As to conditions: Homo sapiens, anti-Fas antibody CH-11 10 ng/ml, 16-18 hrs, DNA fragmentation. From the text: Cellular apoptosis may be induced by the binding of Fas ligand (FasL) to its receptor, CD95 (Fas). CD95 is one of a family of related receptors, known as death receptors, which can trigger apoptosis in cells via activation of the caspase enzyme cascade. The process is initiated by the binding of the adapter molecule FADD/MORT-1 to the cytoplasmic domain of the CD-95 receptor-ligand complex. Caspase-8 then binds FADD and becomes activated, initiating a cascade of events that involve the activation of downstream caspases and subsequent cellular apoptosis. Apoptosis can also be induced in cells expressing CD95 e.g., the Jurkat E6.1 T cell lymphoma cell line, using an antibody, rather than FasL, to crosslink the cell surface CD95. Anti-Fas-induced apoptosis is also triggered via the activation of caspase-8. This provides the basis of a cell based assay to screen compounds for inhibition of the caspase-8-mediated apoptotic pathway.
Jurkat E6.1 cells are cultured in complete medium consisting of RPMI-1640 (Sigma No)+10% foetal calf serum (Gibco BRL No. 10099-141)+2 mM L-glutamine (Sigma No. G-7513). The cells are harvested in log phase of growth. 100 ml of cells at 5-8×10^5 cells/ml are transferred to sterile 50 ml Falcon centrifuge tubes and centrifuged for 5 minutes at 100×g at room temperature. The supernatant is removed and the combined cell pellets resuspended in 25 ml of complete medium. The cells are counted and the density adjusted to 2×10^6 cells/ml with complete medium.
The test compound is dissolved in dimethyl sulfoxide (DMSO)(Sigma No. D-2650) to give a 100 mM stock solution. This is diluted to 400 μM in complete medium, then serially diluted in a 96-well plate prior to addition to the cell assay plate.
100 μl of the cell suspension ([…]) is added to each well of a sterile 96-well round-bottomed cluster plate (Costar No. 3790). 50 μl of compound solution at the appropriate dilution and 50 μl of anti-Fas antibody, clone CH-11 (Upstate, Cat No. 1 544 675) at a final concentration of 10 ng/ml, are added to the wells. Control wells are set up minus antibody and minus compound but with a serial dilution of DMSO as vehicle control. The plates are incubated for 16-18 hrs at 37° C. in 5% CO2 and 95% humidity.
Apoptosis of the cells is measured by the quantitation of DNA fragmentation using a ‘Cell Death Detection Assay’ from Roche diagnostics, No. 1544 675. After incubation for 16-18 hrs the assay plates are centrifuged at 100×g at room temperature for 5 minutes. 150 μl of the supernatant are removed and replaced by 150 μl of fresh complete medium. The cells are then harvested and 200 μl of the lysis buffer supplied in the assay kit are added to each well. The cells are triturated to ensure complete lysis and incubated for 30 minutes at 4° C. The plates are then centrifuged at 1900×g for 10 minutes and the supernatants diluted 1:20 in the incubation buffer provided. 100 μl of this solution is then assayed according to the manufacturer's instructions supplied with the kit. OD405 nm is measured 20 minutes after addition of the final substrate in a SPECTRAmax Plus plate reader (Molecular Devices). OD405 nm is plotted versus compound concentration and the IC50 values for the compounds are calculated using the curve-fitting program SOFTmax Pro (Molecular Devices) using the four parameter fit option.

The subject of a further experiment is rat cortical neurons. Kind of experiment: Hypoxia-induced apoptosis of rat cortical neurons. Type of experiment: cell-based, Wistar rat. The conditions noted are these: Cortical neurone, 95% N2/5% CO2, Cell Death Detection ELISA (DNA fragmentation). The protocol:
Cortical neurons are dissociated from Wistar rat embryos (E17) by a modification of the procedure of Rogers et al. 1997, Brain Res. Bulletin, 44:131. Briefly, cerebral cortices are isolated aseptically from 15-20 Wistar rat embryos. A cell suspension is prepared by mincing the cerebral cortices and digesting them with papain. Cells are washed with ovomucoid enzyme inhibitor and DNaseI and plated onto Poly-D lysine coated plates in high glucose DMEM containing 10% heat-inactivated fetal calf serum, L-glutamine, penicillin and streptomycin. The yield of neurons is […] per embryo and they are 80-90% viable as assessed by Trypan blue exclusion.
The neurons are cultured in complete medium at 37° C. in a normal atmosphere for 48 hours prior to the hypoxia experiments. For hypoxia, the normal cell medium is replaced by oxygen-depleted serum-free medium. Cells are incubated in an atmosphere of 95% N2/5% CO2 for various lengths of time. Compounds are dissolved in DMSO at 100 mM then diluted in medium and added to the culture from time=0. The level of apoptosis is measured using a Cell Death Detection ELISA kit (Roche) which detects DNA fragmentation. Plates are read at 405 nm. Controls included cells cultured in aerobic conditions in serum-containing medium (+serum) and cells cultured in aerobic conditions in serum-deprived medium (−serum).
(In general: ELISA stands for enzyme-linked immunosorbent assay.)

The subject of experiment [1] is IL-1β secretion from human whole blood. Put plainly: Inhibition of IL-1β secretion from whole blood. The format is cell-based. The conditions noted are these: human whole blood diluted 1:2, LPS 5 ng/ml, 18 hours, ELISA. The protocol:
Human blood is freshly drawn from healthy donors and diluted 1:2 in PBS. To 500 μl of diluted blood […] of prediluted test compound in RPMI medium and […] LPS (5 ng/ml final concentration on the plate) are added (LPS, Serotype 0111:B4, Sigma L3012). After stimulation for 18 hours supernatants are collected and assayed for IL-1β levels using the appropriate ELISA kit (R&D systems).

SMILES strings stand for the structures.

Turning to `CC[C@@H](C(=O)N[C@@H](CC(=O)O)C(=O)COc1c(F)c(F)cc(F)c1F)n1cccc(NC(C)=O)c1=O` [Compound 1, (S,S)-3-[2-(3-Acetylamino-2-oxo-2H-pyridin-1-yl)-butyrylamino]-4-oxo-5-(2,3,5,6-tetrafluoro-phenoxy)-pentanoic acid], the values for the 50% inhibitory concentration (IC50) (in the experiment on Jurkat E6.1 cells; with rat cortical neurons; in experiment [1]) were less than 500 nM, 1000 to 10000 nM and less than 500 nM, respectively.
For `CCC(=O)Nc1cccn([C@@H](CC)C(=O)N[C@@H](CC(=O)O)C(=O)COc2c(F)c(F)cc(F)c2F)c1=O` [Compound 2, (S,S)-4-Oxo-3-[2-(2-oxo-3-propionylamino-2H-pyridin-1-yl)-butyrylamino]-5-(2,3,5,6-tetrafluoro-phenoxy)-pentanoic acid], the 50% inhibitory concentration (IC50) in the experiment on Jurkat E6.1 cells is less than 500 nM; with rat cortical neurons, less than 1000 nM; in experiment [1], less than 500 nM.
Consider `CC[C@@H](C(=O)N[C@@H](CC(=O)O)C(=O)COc1c(F)c(F)cc(F)c1F)n1cccc(NC(=O)C2CC2)c1=O` [Compound 4, (S,S)-3-{2-[3-(Cyclopropanecarbonyl-amino)-2-oxo-2H-pyridin-1-yl]-butyrylamino}-4-oxo-5-(2,3,5,6-tetrafluoro-phenoxy)-pentanoic acid], for which the IC50 was less than 500 nM in the experiment with Jurkat E6.1 cells, 1000 to 10000 nM in the experiment with rat cortical neurons and 500 to 5000 nM in experiment [1].
Turning to `CC[C@@H](C(=O)N[C@@H](CC(=O)O)C(=O)COc1c(F)c(F)cc(F)c1F)n1cccc(NC(=O)C(C)C)c1=O` [Compound 5, (S,S)-3-[2-(3-Isobutyrylamino-2-oxo-2H-pyridin-1-yl)-butyrylamino]-4-oxo-5-(2,3,5,6-tetrafluoro-phenoxy)-pentanoic acid], the figures for the IC50 (in the experiment on Jurkat E6.1 cells; in the experiment with rat cortical neurons; in experiment [1]) were less than 500 nM, less than 1000 nM and less than 500 nM, respectively.
Regarding `CC[C@@H](C(=O)N[C@@H](CC(=O)O)C(=O)COc1c(F)c(F)cc(F)c1F)n1cccc(NC(=O)c2ccco2)c1=O` [Compound 7, (S,S)-3-(2-{3-[(Furan-2-carbonyl)-amino]-2-oxo-2H-pyridin-1-yl}-butyrylamino)-4-oxo-5-(2,3,5,6-tetrafluoro-phenoxy)-pentanoic acid], the IC50 is less than 500 nM in the experiment with Jurkat E6.1 cells, 1000 to 10000 nM in the experiment on rat cortical neurons and less than 500 nM in experiment [1].
In the case of `CC[C@@H](C(=O)N[C@@H](CC(=O)O)C(=O)COc1c(F)c(F)cc(F)c1F)n1cccc(NC(=O)c2ccccc2)c1=O` [Compound 11, (S,S)-3-[2-(3-Benzoylamino-2-oxo-2H-pyridin-1-yl)-butyrylamino]-4-oxo-5-(2,3,5,6-tetrafluoro-phenoxy)-pentanoic acid], the half-inhibitory concentration (IC50) with Jurkat E6.1 cells is less than 500 nM; in the experiment with rat cortical neurons, less than 1000 nM; in experiment [1] it was less than 500 nM.
Consider `CC[C@@H](C(=O)N[C@@H](CC(=O)O)C(=O)COc1c(F)c(F)cc(F)c1F)n1cc(C(F)(F)F)cc(NC(C)=O)c1=O` [Compound 13, (S,S)-3-[2-(3-Acetylamino-2-oxo-5-trifluoromethyl-2H-pyridin-1-yl)-butyrylamino]-4-oxo-5-(2,3,5,6-tetrafluoro-phenoxy)-pentanoic acid], for which the 50% inhibitory concentration (IC50) with Jurkat E6.1 cells is less than 500 nM; with rat cortical neurons, less than 1000 nM; in experiment [1] it was 500 to 5000 nM.
Consider `CCC(=O)Nc1cccn([C@@H](C)C(=O)NC(CC(=O)O)C(=O)CF)c1=O` (stereo partly drawn) [Compound 25, (S)-5-Fluoro-4-oxo-3-[2-(2-oxo-3-propionylamino-2H-pyridin-1-yl)-propionylamino]-pentanoic acid], for which the concentration for half-maximal inhibition (IC50) in the experiment on Jurkat E6.1 cells is less than 500 nM.
Still for that read-out and setting: under `C[C@@H](C(=O)NC(CC(=O)O)C(=O)CF)n1cccc(NC(=O)c2ccccc2)c1=O` (stereo partly drawn) [Compound 26, (S)-3-[2-(3-Benzoylamino-2-oxo-2H-pyridin-1-yl)-propionylamino]-5-fluoro-4-oxo-pentanoic acid] stands 500 to 2000 nM; under `C[C@@H](C(=O)NC(CC(=O)O)C(=O)CF)n1cccc(NC(=O)c2c(Cl)cccc2Cl)c1=O` (stereo partly drawn) [Compound 27, (S)-3-{2-[3-(2,6-Dichloro-benzoylamino)-2-oxo-2H-pyridin-1-yl]-propionylamino}-5-fluoro-4-oxo-pentanoic acid], less than 500 nM.
Consider `C[C@@H](C(=O)NC(CC(=O)O)C(=O)CF)n1cccc(NC(=O)Cc2ccccc2)c1=O` (stereo partly drawn) [Compound 28, (S)-5-Fluoro-4-oxo-3-[2-(2-oxo-3-phenylacetylamino-2H-pyridin-1-yl)-propionylamino]-pentanoic acid], for which the half-inhibitory concentration (IC50) with Jurkat E6.1 cells was 500 to 2000 nM; in experiment [1], 500 to 5000 nM.
Turning to `CC[C@@H](C(=O)NC(CC(=O)O)C(=O)CF)n1cccc(NC(=O)c2ccccc2)c1=O` (stereo partly drawn) [Compound 30, (S)-3-[2-(3-Benzoylamino-2-oxo-2H-pyridin-1-yl)-butyrylamino]-5-fluoro-4-oxo-pentanoic acid], the half-maximal inhibitory concentration (IC50) in the experiment with Jurkat E6.1 cells is less than 500 nM; in the experiment on rat cortical neurons, 1000 to 10000 nM.
Consider `CC[C@@H](C(=O)NC(CC(=O)O)C(=O)CF)n1cccc(NC(=O)c2c(Cl)cccc2Cl)c1=O` (stereo partly drawn) [Compound 31, (S)-3-{2-[3-(2,6-Dichloro-benzoylamino)-2-oxo-2H-pyridin-1-yl]-butyrylamino}-5-fluoro-4-oxo-pentanoic acid], for which the half-inhibitory concentration (IC50) was less than 500 nM with Jurkat E6.1 cells and 1000 to 10000 nM with rat cortical neurons.
As for `CC[C@@H](C(=O)NC(CC(=O)O)C(=O)CF)n1cccc(NC(=O)c2ccccn2)c1=O` (stereo partly drawn) [Compound 32, (S)-5-Fluoro-4-oxo-3-(2-{2-oxo-3-[(pyridine-2-carbonyl)-amino]-2H-pyridin-1-yl}-butyrylamino)-pentanoic acid], in the experiment with Jurkat E6.1 cells, the IC50 is less than 500 nM.
Still for that read-out and setting: next, `CC[C@@H](C(=O)NC(CC(=O)O)C(=O)CF)n1cccc(NC(=O)Cc2ccccc2)c1=O` (stereo partly drawn) [Compound 33, (S)-5-Fluoro-4-oxo-3-[2-(2-oxo-3-phenylacetylamino-2H-pyridin-1-yl)-butyrylamino]-pentanoic acid]: less than 500 nM.
In the case of `CC[C@@H](C(=O)NC(CC(=O)O)C(=O)CF)n1cccc(NC(=O)Cc2cccc(C)c2)c1=O` (stereo partly drawn) [Compound 34, (S)-5-Fluoro-4-oxo-3-{2-[2-oxo-3-(2-m-tolyl-acetylamino)-2H-pyridin-1-yl]-butyrylamino}-pentanoic acid], the half-inhibitory concentration (IC50) in the experiment on Jurkat E6.1 cells was less than 500 nM; with rat cortical neurons it was 1000 to 10000 nM.
Turning to `CCC[C@@H](C(=O)NC(CC(=O)O)C(=O)CF)n1cccc(NC(=O)CC)c1=O` (stereo partly drawn) [Compound 35, (S)-5-Fluoro-4-oxo-3-[2-(2-oxo-3-propionylamino-2H-pyridin-1-yl)-pentanoylamino]-pentanoic acid], the 50% inhibitory concentration (IC50) in the experiment with Jurkat E6.1 cells was less than 500 nM; in the experiment on rat cortical neurons, 1000 to 10000 nM.
For `CC[C@@H](C(=O)NC(CC(=O)O)C(=O)CF)n1cc(C)cc(NC(=O)Cc2ccccc2)c1=O` (stereo partly drawn) [Compound 37, (S)-5-Fluoro-3-[2-(5-methyl-2-oxo-3-phenylacetylamino-2H-pyridin-1-yl)-butyrylamino]-4-oxo-pentanoic acid] the same measures were less than 500 nM and 1000 to 10000 nM.

What is called IC50 is the point on the concentration scale where inhibition reaches its midpoint. A low value points to greater potency.
